Experimental data: patent US5856506A, “Phosphatase inhibitors and methods of use thereof” (University of Pittsburgh, priority 1997, dated 1999)
pIC50: −log10 of the molar value. Where two headings read alike, the source gives them in different places.

Assays:
PP3 = experiment: Phosphatase activity by [32P] release from phosphorylase-a or phosphohistone (Honkanen method); assay type: biochemical; conditions: 100 μM inhibitor; none = 100
Method: (§1) It has been found in accordance with the present invention that compounds of formula I are capable of inhibiting serine/threonine protein phosphatases. Inhibition of serine/threonine protein phosphatases is defined herein as inhibition of the activity of one or more of PP1, PP2A or PP3 at a concentration of 100 μM or less of the inhibitor compound. In a preferred embodiment, the activity of the phosphatase is inhibited by at least 10%. In more preferred embodiments, the activity of the phophatase is inhibited by at least 25%, or even more preferably, by at least 50%. Inhibition of PP1, PP2A or PP3 can be assessed by methods known to one of ordinary skill in the art. Suitable assays are described, for example by Honkanen et al. (1994) Toxicon 32:339 and Honkanen et al. (1990) J. Biol. Chem. 265: 19401, the disclosures of which are incorporated herein by reference. Briefly, phosphatase activity is determined by quantifying the [^32 p] released from a ^32 p-labeled substrate such as phosphohistone or phosphorylase-a. Decreased [^32 p] release in the presence of the compounds of the present invention relative to control samples provides a measure of the ability of the compounds of the invention to inhibit PP1, PP2A or PP3.
(§2) Phosphatase activity and the inhibitory activity of the compounds of Table 1 were determined by the method of Honkanen et al. (1994) Toxicon 32:339. Briefly, phosphatase activity against phosphorylase-a or phosphohistone was 25 determined by the quantification of liberated [^32 p]. Assays, 80 μl total volume, containing 50 mM Tris-HCl, pH 7.4, 0.5 mM DTT, 1 mM EDTA (assay buffer) and [^32 p]phosphoprotein (1-2 μM PO4), were conducted as described previously (Honkanen et al., 1991 Mol. Pharmac. 40:577). Dephosphorylation reactions were routinely conducted for 5-10 min. using phosphorylase-a as a substrate and for 10-20 min. using phosphohistone. In all assays the dephosphorylation of substrate was kept to less than 10% of the total phosphorylated substrate available, and the reactions were adjusted to ensure that enzyme activity was linear with respect to enzyme concentration and time. [^32 p]Phosphate liberated by the enzymes was extracted as a phosphomolybdate complex and measured according to the methods of Killilea et al. (1978) Arch. Biochem. Biophys. 191:638. Inhibition of protein phosphatase activity by inhibitors was determined by adding the 100 μM of inhibitors to the enzyme mixture 5-10 min. prior to initiating the reaction with the addition of substrate.

PP1 = experiment: as above; assay type: biochemical; conditions: 100 μM inhibitor; none = 100
Method: as §1, §2

PP2A = PP2A (Bos taurus, UniProt P67774); experiment: as above; assay type: biochemical; conditions: 100 μM inhibitor; none = 100; read-out: PP2A, percent inhibition relative to control (100%)
Sequence of PP2A (P67774 whole entry): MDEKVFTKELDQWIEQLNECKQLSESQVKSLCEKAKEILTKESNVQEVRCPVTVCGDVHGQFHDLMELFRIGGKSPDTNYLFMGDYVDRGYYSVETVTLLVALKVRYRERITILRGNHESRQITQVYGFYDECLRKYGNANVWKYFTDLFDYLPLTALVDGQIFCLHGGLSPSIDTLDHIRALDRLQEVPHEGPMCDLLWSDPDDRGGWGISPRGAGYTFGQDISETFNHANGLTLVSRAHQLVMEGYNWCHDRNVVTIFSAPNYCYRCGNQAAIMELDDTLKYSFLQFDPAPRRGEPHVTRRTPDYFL
Method: as §1, §2

[1] = tested on: human MDA-MB-231 breast cancer cells; experiment: Antiproliferative activity, tetrazolium reduction assay (Lazo method), 72 h; assay type: cell-based; conditions: for pIC50: MDA-MB-231, 72 h continuous treatment, read-out: concentration causing 50% growth inhibition
Excerpt: The ability of the compounds of the present invention to inhibit proliferation can be assessed by methods known to those of ordinary skill in the art. For example, proliferating cells can be contacted with a compound of the invention, and cell numbers determined. A reduction in cell number in treated versus untreated cells provides a measure of the ability of the present compounds to inhibit proliferation. In a preferred embodiment the cells to be treated are cancer cells, for example breast cancer cells such as the CDC25B+ breast cancer cells MDA-MB-231, which are available from the American Type Culture Collection (Accession No. HTB-26). The antiproliferative activity of the present compounds can also be measured by the assay described by Lazo et al. (1995) J. Biol. Chem. 270: 5506, the disclosure of which is incorporated herein by reference. The microtiter-based calorimetric assay is based upon the reduction of 3-[4,5-dimethylthiazol-2-yl]-2,5-diphenyl tetrazolium bromide by living cells, and permits evaluation of the cytostatic or cytotoxic actions of large numbers of compounds quickly in mouse embryonic fibroblasts and human CDC25B+ breast cancer cells. Briefly, exponentially growing CDC25B+ MDA-MB-231 cells are treated continuously with from 0 to 100 μM of a compound of the invention, and cell proliferation is determined calorimetrically after 72 hours by assessing the ability of the cells to reduce 3-[4,5-dimethylthiazol-2-yl]-2,5-diphenyl tetrazolium bromide.
Human MDA-MB-231 breast carcinoma cells were obtained from the American Type Culture Collection at passage 28 and were maintained for no longer than 20 passages. The cells were grown in RPMI-1640 supplemented with 1% penicillin (100 μg/mL) and streptomycin (100 μg/mL), 1% L-glutamate,and 10% fetal bovine serum in a humidified incubator at 37° C. under 5% CO2 in air. Cells were routinely found free of mycoplasma. To remove cells from the monolayer for passage or flow cytometry, cells were washed two times with phosphate buffer and briefly (<3 min) treated with 0.05% trypsin/2 mM EDTA at room temperature. After the addition of at least two volumes of growth medium containing 10W fetal bovine serum, the cells were centrifuged at 1,000×g for 5 min. Compounds were made into stock solutions using DMSO, and stored at -20° C. All compounds and controls were added to obtain a final concentration of 0.1-0.2% (v/v) of the final solution for experiments.
The antiproliferative activity of the compounds was determined by the method of Lazo et al. (1995) J. Biol. Chem. 270:5506. Briefly, cells (6.5×10^3 cells/cm^2) were plated in 96 well flat bottom plates for the cytotoxicity studies and incubated at 37° C. for 48 h. The plating medium was aspirated off 96 well plates and 200 μL of growth medium containing the compound was added per well. Compounds were used at from O to the highest available concentration which ranged from 30 to 100 μM. Plates were incubated for 72 h, and then washed 4× with serum free medium. After washing, 50 μL of 3-[4,5-dimethylthiazol-2-yl]-2,5-diphenyl tetrazolium bromide solution (2 mg/mL) was added to each well, followed by 150 μL of complete growth medium. Plates were then incubated an additional 4 h at 37° C. The solution was aspirated off, 200 μL of DMSO added, and the plates were shaken for 30 min at room temperature. Absorbance at 540 nm was determined with a Titertek Multiskan Plus plate reader. Biologically active compounds were tested at least 3 independent times.

Structure (SMILES): CCCCCCCCCC(=O)NC(CCC(=O)N(CCNC(=O)c1nc(-c2ccccc2)oc1-c1ccccc1)Cc1ccccc1)C(=O)O (stereo not shown) [Compound 1f]
- PP3 remaining activity, percent of control (PP3): 85%
- PP1 remaining activity, percent of control (PP1): 117%
- PP2A remaining activity, % of control at 100 µM (PP2A): 156%
- pIC50 ([1]; Homo sapiens, MDA-MB-231, 72 h): 4.00
- concentration dependence of growth inhibition (in words) ([1]; MDA-MB-231, 72 h): concentration-dependent inhibition in proliferation
- concentration dependence of growth inhibition (in words) ([1]; MDA-MB-231, 72 h, listed as if): clear concentration-dependency
- pIC50 [1]: 4.00 to 4.06
